From patent US20210161894A1, “Compositions and Methods for Modulating Liver Endothelial Cell Fenestrations” (priority 2017, published 2021)
“Also recorded” adds a separate entry of the source.

Experiments:
fenestrations = conditions: young mice; cited from earlier work
[1] = system: isolated LSECs (liver sinusoidal endothelial cells); test: SEM of fenestrations in isolated LSECs from young and old mice after 30 min drug treatment (second Example 7); format: cell-based; conditions: for Diameter / Frequency / Porosity: 30 min; for effect on porosity and fenestration frequency (summary in words): young and old LSECs
Experimental: 3-4 and 18-24 month old male C57/B16 mice were obtained from the Animal Resource Centre in Perth, Western Australia. Animals were housed at the ANZAC Research Institute animal house on a 12 hour light/dark cycle and provided with ad libitum access to food and water. Mice were not fasted prior to euthanasia by a single intraperitoneal injection with 100 mg/kg ketamine and 10 mg/kg xylazine in saline. The study was approved by the Animal Welfare Committee of the Sydney Local Health District and was performed in accordance with the Australian Code of Practice for the care and use of animals for scientific research (AWC 2016/009). All information provided accords with the ARRIVE guidelines.
As described previously (Cogger et al. J e52698, 2015 https://dx.doi.org/10.3791/52698), mouse LSEC isolation was performed by perfusion of the liver with collagenase. Non-parenchymal cells were removed by a two-step Percoll gradient and Kupffer cells were removed by selective adherence to plastic. LSECs (seeded at 0.5×10^6 cells/cm2) were cultured (37° C., 5% CO2) in serum free RPMI-1640 for 3.5 hours before use.
Cells were treated with various agents for 30 minutes to determine effects on fenestrations. All agents were dissolved in serum-free RPMI media. All experiments were performed in triplicate for both young and old mice. Actin was disrupted with 0.5 μg/ml cytochalasin D and lipid rafts were disrupted with 3.6 and 1.8 μg/ml 7-keocholesterol; dosages were selected. […] The serotonergic/phospholipase C pathway was promoted with DOI (0.1 μg/ml) and endothelin receptors were inhibited by bosentan (550, 55 and 5.5 ng/ml) Death receptor 4 was promoted with TRAIL (100, 10. 1, 0.1 and 0.01 ng/ml) and NAD+ was promoted with NMN (5000, 50, 10, 1 and 0.1 μg/ml).
SEM was performed as previous described (Corbin et al J Biol Chem 274: 13729-13732, 1999.). LSECs were fixed in 2.5% glutaraldehyde in 0.1M sodium cacodylate buffer, osmicated, dehydrated in graded ethanol and hexamethyl disilazane, mounted on stubs, sputter coated with platinum and examined using a JEOL 6380 Scanning Electron Microscope (JEOL Ltd, Japan). Images at 10,000× magnification were collected by a blinded observer and used to measure fenestration diameter and LSEC porosity using Image J (NIH, MD, USA). […] Fenestrations less than 30 nm and gaps more than 300 nm were excluded from analysis. Porosity was defined as the percentage of the cell membrane covered with fenestrations. Frequency was defined at the number of fenestrations per […].
Individual specifications of analyses are described in figures legends. All data are presented as mean±SD. Experimental design and analysis were performed in accordance with the APS guidelines described in Curran-Everett and Benos DJ. Adv Physiol Educ 31: 295-298, 2007.

LSEC fenestrations = test: SEM of LSEC fenestrations after drug treatments (Example 2, FIGS. 1-6); format: cell-based, mice; conditions: for change in fenestration diameter: TRAIL 1 μg/ml; for sieve plates and fenestration density on SEM images: young and old mice; for fenestration porosity: 300 ng/ml
Description: Young and old C57B16 mice (n=3 young mice, age 3-4 and n=3 old mice, 20-24 months) were maintained under full SPF conditions and with ad libitum feeding. The study had the approval of the Sydney South West Area Health Service Animal Welfare Committee. Mice at 20-24 months are senescent. Animals were sacrificed withCO2 and livers immediately perfusion-fixed via a 23G needle inserted into the portal vein. Liver tissue was fixed with1% glutaraldehyde/4% para-formaldehyde in PBS (0.1M sucrose).
Drug treatments and dosages (shown superimposed on their corresponding image in FIGS. 1, and 2) were performed by incubating liver cells at 37° C., 5% CO2 for 30 mins using RPMI with or without dissolved drug. All images were taken by two blinded researchers using a SEM at 10,000×, scale bars of 1 μm are shown.
Each data point represents the average±SD of 8 images (as shown in FIGS. 1 and 2), 616-3312 fenestration raw data points were collected per treatment.

[2] = system: lipid rafts and fenestrations of LSECs; test: 3D-SIM study of lipid rafts and fenestrations; format: cell-based
Description: Sieve plates containing fenestrations are intercalated between thickened areas of membrane (lipid rafts).

Intracellular cGMP = test: Cyclic GMP ELISA; format: cell-based, mice; conditions: p=0.001
Experimental: Assays for MTT and cGMP were performed as instructed by the kit. Briefly, MTT assays were performed following drug treatments. Cells were washed with PBS and incubated with RPMI media containing […] MTT solution. Cells were incubated at 37° C. for 4 hrs and lysed with […] solubilisation solution, 30 mins colour development followed and measured at 570 nm using a spectrophotometer. cGMP assays were also performed after drug treatments. Cells were washed with PBS and lysed with 0.1M HCl. Following sample collection the sample was acetylated and prepared with kit reagents. Samples were incubated for 18 hrs at 4° C. before examination at 410 nm with a spectrophotometer.

[3] = system: actin cytoskeleton of LSECs; test: dSTORM imaging of the actin cytoskeleton; format: cell-based; conditions: young mice
Experimental: dSTORM imaging was performed using an in-house microscope. LSECs were prepared for dSTORM by washing twice with PBS and fixation with 4% paraformaldehyde for 30 mins. Then LSECs were washed twice with PBS, permeabilised with Triton-X for 90 secs, blocked with 5% bovine serum albumin for 1 hour, and stained with Alexa Flour phalloidin 488 (1:40) for 20 min prior to imaging. Cells were washed using PBS with 0.1% Tween and placed in OxEA buffer (30) for dSTORM visualisation and image capture. The dSTORM used 488 and 647 nm excitation from diode-pumped lasers (Coherent Inc, CA, USA). Excitation was delivered via a 1.49NA 60× oil-immersion TIRF objective (Olympus Australia, AUS). Fluorescence was captured on two separate sCMOS cameras (Imaging Development Systems GmbH, Germany). Data was collected for up to 40,000 images at around 75 fps. 5-8 whole cell images were collected by a blinded observer for each treatment dosage and processed using rapidSTORM open source software (Wolter et al. Nat Methods 9: 1040, 2012.). Each image was examined for all sieve plates and actin structures. Densitometry measurements were performed using 5-8 dSTORM images with data analysis performed using Image J software (NIH, MD, USA).

[4] = old mice, 7KC 4.5 μM, Bosentan 0.1 μM, Sildenafil 300 ng/ml

CC(C)CCC[C@@H](C)[C@H]1CC[C@H]2[C@@H]3C(=O)C=C4C[C@@H](O)CC[C@]4(C)[C@H]3CC[C@]12C [7-ketocholesterol]
fenestration porosity and diameter (previously reported) (fenestrations): increase fenestration porosity in young mice without any significant effects on fenestration diameter | gap formation [1]: Gap formation was apparent | increase in fenestration diameter [1]: 15 nm | fenestrations in LSECs from old mice ([1]; old mice): increased fenestrations | Diameter ([1]; old mice, 1.8 μg/ml): 154.41 ± 13.07 nm | Frequency ([1]; old mice, 1.8 μg/ml): 2.65 ± 0.94 no/area | Porosity ([1]; old mice, 1.8 μg/ml): 5.19 ± 0.95 % | Diameter ([1]; old mice, 3.6 μg/ml): 139.46 ± 17.45 nm | Frequency ([1]; old mice, 3.6 μg/ml): 3.15 ± 0.08 no/area | Porosity ([1]; old mice, 3.6 μg/ml): 5.34 ± 1.17 % | effect on porosity and fenestration frequency (summary in words) [1]: significant increases in porosity and fenestration frequency in both young and old LSECs | fenestration diameter ([1]; young and old mice, P<0.05): increased fenestration diameter in both young and old mice | Diameter ([1]; young mice, 1.8 μg/ml): 142.35 ± 8.02 nm | Frequency ([1]; young mice, 1.8 μg/ml): 3.59 ± 0.78 no/area | Porosity ([1]; young mice, 1.8 μg/ml): 6.10 ± 1.82% | Diameter ([1]; young mice, 3.6 μg/ml): 148.59 ± 7.70 nm | Frequency ([1]; young mice, 3.6 μg/ml): 4.36 ± 0.93 no/area | Porosity ([1]; young mice, 3.6 μg/ml): 8.03 ± 1.37 % | shift in frequency distribution of fenestration diameter ([1]; young mice, NMN 5000 μg/ml, 7-ketocholesterol 3.6 μg/ml): decreased 30-125 nm diameter fenestrations and an increase in 150-3000 sized fenestrations | diameter of fenestrations observed on SEM images (LSEC fenestrations): Increased diameter of fenestrations | change in fenestration diameter (LSEC fenestrations; [4]): Increased fenestration diameter | change in fenestration porosity (LSEC fenestrations; old mice, Cytochalasin D 0.5 μg/ml, DOI 0.1 μg/ml, 7KC 9 μM, Amlodipine 20 ng/ml): increased porosity | change in fenestration frequency (LSEC fenestrations; old mice, Cytochalasin D 0.5 μg/ml, DOI 0.1 μg/ml, 7KC 9 μM, Bosentan 0.1 μM, Sildenafil 300 ng/ml, Amlodipine 20 ng/ml): increased | sieve plates and fenestration density on SEM images (LSEC fenestrations): promoted increased fenestrations but limited clearly definable sieve plates | change in fenestration porosity (LSEC fenestrations; young mice, Cytochalasin D 0.5 μg/ml, DOI 0.1 μg/ml, 7KC 9 μM, Amlodipine 20 ng/ml): increased porosity | effect on fenestrations and lipid rafts [2]: increased fenestrations and decreased rafts

CCCc1nn(C)c2c(=O)[nH]c(-c3cc(S(=O)(=O)N4CCN(C)CC4)ccc3OCC)nc12 [Sildenafil, sildenafil]
increase of intracellular cGMP (Intracellular cGMP): 3 fold | Diameter ([1]; old mice, 0.3 μg/ml): 138.91 ± 13.05 nm | Frequency ([1]; old mice, 0.3 μg/ml): 3.41 ± 0.68 no/area | Porosity ([1]; old mice, 0.3 μg/ml): 5.49 ± 1.33 % | Diameter ([1]; old mice, 0.6 μg/ml): 143.69 ± 10.80 nm | Frequency ([1]; old mice, 0.6 μg/ml): 2.88 ± 01.16 no/area | Porosity ([1]; old mice, 0.6 μg/ml): 4.97 ± 1.34 % | effect on porosity and fenestration frequency (summary in words) [1]: significant increases in porosity and fenestration frequency in both young and old LSECs | dose response on fenestration porosity (words) ([1]; young mice): limited dosage range for positive effects on fenestration porosity | Diameter ([1]; young mice, 0.3 μg/ml): 126.34 ± 16.36 nm | Frequency ([1]; young mice, 0.3 μg/ml): 4.54 ± 0.34 no/area | Porosity ([1]; young mice, 0.3 μg/ml): 6.34 ± 2.09 % | Diameter ([1]; young mice, 0.6 μg/ml): 130.33 ± 16.02 nm | Frequency ([1]; young mice, 0.6 μg/ml): 3.56 ± 0.61 no/area | Porosity ([1]; young mice, 0.6 μg/ml): 4.92 ± 0.35% | dose response on fenestration porosity (words) ([1]; young mice, listed as sildenafil): did not promote greater changes in fenestration porosity or frequency | fenestration numbers, fenestrated cell area and sieve plate formation ([1]; young mice, sildenafil 0.3 μg/ml, amlodipine 20 ng/ml, TRAIL 1 ng/ml): increased fenestration numbers and overall fenestrated cell area with some disruption to sieve plate formation | actin changes with drug treatments (dSTORM) [3]: disordered, dense actin staining in the plasma membrane and clustering of actin within the cytoplasm; also recorded: Disordered actin structure; also recorded: Gap formations; also recorded: Individual fenestrations | actin changes with drug treatments (dSTORM) ([3]; listed as sildenafil): loss of smooth fibres encircling the cytoplasm | fenestration porosity (LSEC fenestrations; old mice): 5.4±1.9% | change in fenestration diameter (LSEC fenestrations; [4]): No changes | sieve plates and fenestration density on SEM images (LSEC fenestrations): maintained sieve plates and increased fenestration density | fenestration porosity (LSEC fenestrations; young mice): 7.1±2.2% | change in fenestration diameter (LSEC fenestrations; young mice, Bosentan 0.1 μM, Sildenafil 300 ng/ml): No changes
